Target: T1, recombinant autotaxin (Homo sapiens, UniProt Q13822)
T1 construct: made in house; host or cells: Hi5 insect cells (baculovirus)
Assay: Autotaxin assay (Amplex Red fluorescence, LPC substrate)
Format: biochemical
Settings: percent of uninhibited control (100%) at 1E−05 M compound
Method: Autotaxin activity is measured indirectly by means of Amplex Red Reagent. In this course, Amplex Red is measured as fluorogenic indicator for generated H2O2. Autotaxin converts substrate lysophosphatidylcholine (LPC) to phosphocholine and lysophosphatidylic acid (LPA). After the conversion phosphocholine is reacted with alkaline phosphatase to obtain inorganic phosphate and choline. During the next step choline is oxidized with choline oxidase to yield betaine, whereby H2O2 is generated. H2O2 reacts with Amplex Red Reagent in the presence of peroxidase (Horseradish peroxidase) in an 1:1 stochiometry and yields highly fluorescent resorufin. The generated fluorescence is measured in a reaction-dependent kinetic mode in order to enable subtraction of fluorescence signals of possible other fluorescent compounds that are not part of the reaction from total measured fluorescence.
1.5 μl of a standard solution or of the compounds of the invention are dissolved in 20 mM Hepes pH 7.2 with maximally 7.7% DMSO in individual concentrations. The resulting solution is pre-incubated together with 10 μl (16 ng) of highly purified recombinant autotaxin in a black 384-hole microtiter plate for 30 min at 22° C.
Thereafter, the reaction is started through the addition of 5 μl L-a-lysophosphatidyl-choline (LPC), whereby the final concentration of LPC is 75 μM. The mixture is incubated for 90 min. at 37° C. After the incubation Amplex Red Reagent, peroxidase (Horseradish peroxidase) and choline oxidase are added. The fluorescence is immediately measured at a wavelength of 612 nm with an excitation wavelength of 485 nm in a “Tecan Ultra multimode” fluorescence reader. The activity of autotaxin is indirectly calculated via the amount of detected generated H2O2.
For IC50 analysis, ten serial 1:3 dilutions starting at 30 μM for each compound were run in duplicates.
IC50 values were calculated on normalized data. For normalization, control wells were added to each assay plate and the signal of uninhibited control wells was set to 100%, whereas the signal inhibited by 500 μM C14 LPA, (Avanti Polar Lipids, Cat#857120P) was set to 0%. Curves were fitted and IC50 values calculated by the following model using proprietory analysis software: Y=Bottom+(100−Bottom)/(1+10^((Log IC50−X)*HillSlope))
Where X is the logarithm of concentration. Y is the response;
Y starts at Bottom and goes to Top with a sigmoid shape.
Protein: Recombinant autotaxin (baculoviral Hi5 expression)
Substrate: L-a-lysophosphatidyl choline (chicken egg); Avanti Polar Lipids #830071P
Standard: C14 LPA, Avanti Polar Lipids, Cat#857120P
Detection Reagent Amplex Red Reagent; Invitrogen #A12222; dissolved in 1.923 ml of DMSO peroxidase Type VI-A (horseradish), Sigma #P6782; dissolved in 7.45 ml of test buffer, Choline Oxidase; Sigma #C5896; dissolved in 2.47 ml test buffer
Detection Reagent Mix: 1:100 dilution of Amplex Red Regent in test buffer
Test buffer: 200 mM Tris-HCl, Merck, Cat #1.08219, pH 7.9; 0.1% BSA, lipid free, Roche Cat#775835

| % CTRL (1E−05) [%] | SMILES |
| --- | --- |
| 52 | O=C(Nc1ccc(Cl)cc1)Nc1sc2c(c1C(=O)N1CCCC1)CCN(C(=O)c1ccc3[nH]nnc3c1)C2 [Compound 27, 1-[6-(1H-Benzotriazole-5-carbonyl)-3-(pyrrolidine-1-carbonyl)-4,5,6,7-tetrahydro-thieno[2,3-c]pyridin-2-yl]-3-(4-chloro-phenyl)-urea] |
| 93 | O=C(Nc1ccc(C(F)(F)F)cc1)Nc1nc2ccc(C(=O)Nc3ccc4[nH]c(=O)oc4c3)cc2s1 [Compound 30, 2-[3-(4-Trifluoromethyl-phenyl)-ureido]-benzothiazole-6-carboxylic acid (2-oxo-2,3-dihydro-benzooxazol-6-yl)-amide] |
| 94 | O=C(Nc1ccc(Cl)cc1)Nc1nc2ccc(C(=O)Nc3ccc4[nH]c(=O)oc4c3)cc2s1 [Compound 31, 2-[3-(4-Chloro-phenyl)-ureido]-benzothiazole-6-carboxylic acid (2-oxo-2,3-dihydro-benzooxazol-6-yl)-amide] |
| 64 | O=C(Nc1ccc(C(F)(F)F)cc1)Nc1nc2ccc(C(=O)Nc3ccc4[nH]nnc4c3)cc2s1 [Compound 32, 2-[3-(4-Trifluoromethyl-phenyl)-ureido]-benzothiazole-6-carboxylic acid (1H-benzotriazol-5-yl)-amide] |
| 73 | O=C(NC(CO)Cc1ccc(Cl)cc1)c1[nH]nc2c1CCN(C(=O)c1ccc3[nH]nnc3c1)C2 (stereo not drawn) [Compound 40, 6-(1H-Benzotriazole-5-carbonyl)-4,5,6,7-tetrahydro-2H-pyrazolo[3,4-c]pyridine-3-carboxylic acid [2-(4-chloro-phenyl)-1-hydroxymethyl-ethyl]-amide] |
| 66 | COc1ccccc1CNC(=O)c1[nH]nc2c1CCN(C(=O)c1ccc3[nH]nnc3c1)C2 [Compound 41, 6-(1H-Benzotriazole-5-carbonyl)-4,5,6,7-tetrahydro-2H-pyrazolo[3,4-c]pyridine-3-carboxylic acid 2-methoxy-benzylamide] |
| 76 | O=C(NCc1ccc(Cl)cc1F)c1[nH]nc2c1CCN(C(=O)c1ccc3[nH]nnc3c1)C2 [Compound 46, 6-(1H-Benzotriazole-5-carbonyl)-4,5,6,7-tetrahydro-2H-pyrazolo[3,4-c]pyridine-3-carboxylic acid 4-chloro-2-fluoro-benzylamide] |

Same assay, conditions: ten serial 1:3 dilutions starting at 30 μM, duplicates; 75 μM LPC; values given as upper bounds

| IC50 [µM] | SMILES |
| --- | --- |
| < 10 | NC(=O)c1c(NC(=O)Cc2ccc(Cl)cc2F)sc2c1CCN(C(=O)CCc1ccccn1)C2 [Compound 24, 2-[2-(4-Chloro-2-fluoro-phenyl)-acetylamino]-6-(3-pyridin-2-yl-propionyl)-4,5,6,7-tetrahydro-thieno[2,3-c]pyridine-3-carboxylic acid amide] |
| < 30 | COC(=O)c1c(NC(=O)Nc2ccc(Cl)cc2)sc2c1CCN(C(=O)c1ccc3[nH]nnc3c1)C2 [Compound 25, 6-(1H-Benzotriazole-5-carbonyl)-2-[3-(4-chloro-phenyl)-ureido]-4,5,6,7-tetrahydro-thieno[2,3-c]pyridine-3-carboxylic acid methyl ester] |
| < 10 | COC(=O)c1c(NC(=O)Nc2ccc(Cl)cc2)sc2c1CCN(C(=O)c1ccc3[nH]c(=O)oc3c1)C2 [Compound 26, 2-[3-(4-Chloro-phenyl)-ureido]-6-(2-oxo-2,3-dihydro-benzooxazole-6-carbonyl)-4,5,6,7-tetrahydro-thieno[2,3-c]pyridine-3-carboxylic acid methyl ester] |
| < 30 | NC(=O)c1c(NC(=O)Nc2ccc(Cl)cc2)[nH]c2cc(C(=O)Nc3ccc4[nH]c(=O)oc4c3)ccc12 [Compound 28, 2-[3-(4-Chloro-phenyl)-ureido]-1H-indole-3,6-dicarboxylic acid 3-amide 6-[(2-oxo-2,3-dihydro-benzooxazol-6-yl)-amide]] |
| < 10 | O=C(Cc1ccc(Cl)cc1F)Nc1nc2ccc(C(=O)Nc3ccc4[nH]c(=O)oc4c3)cc2s1 [Compound 29, 2-[2-(4-Chloro-2-fluoro-phenyl)-acetylamino]-benzothiazole-6-carboxylic acid (2-oxo-2,3-dihydro-benzooxazol-6-yl)-amide] |
| < 10 | O=C(NCc1cc(Cl)cc(Cl)c1)c1[nH]nc2c1CCN(C(=O)c1ccc3[nH]nnc3c1)C2 [Compound 33, 6-(1H-Benzotriazole-5-carbonyl)-4,5,6,7-tetrahydro-2H-pyrazolo[3,4-c]pyridine-3-carboxylic acid 3,5-dichloro-benzylamide] |
| < 10 | O=C(NCc1ccc(Cl)cc1)c1[nH]nc2c1CCN(C(=O)c1ccc3[nH]nnc3c1)C2 [Compound 34, 6-(1H-Benzotriazole-5-carbonyl)-4,5,6,7-tetrahydro-2H-pyrazolo[3,4-c]pyridine-3-carboxylic acid 4-chloro-benzylamide] |
| < 10 | CC(CNC(=O)c1[nH]nc2c1CCN(C(=O)c1ccc3[nH]nnc3c1)C2)c1ccc(Cl)cc1 (stereo not drawn) [Compound 35, 6-(1H-Benzotriazole-5-carbonyl)-4,5,6,7-tetrahydro-2H-pyrazolo[3,4-c]pyridine-3-carboxylic acid [2-(4-chloro-phenyl)-propyl]-amide] |
| < 30 | O=C(NCc1cc(C(F)(F)F)ccc1F)c1[nH]nc2c1CCN(C(=O)c1ccc3[nH]nnc3c1)C2 [Compound 36, 6-(1H-Benzotriazole-5-carbonyl)-4,5,6,7-tetrahydro-2H-pyrazolo[3,4-c]pyridine-3-carboxylic acid 2-fluoro-5-trifluoromethyl-benzylamide] |
| < 10 | O=C(NCCc1ccc(Cl)c(Cl)c1)c1[nH]nc2c1CCN(C(=O)c1ccc3[nH]nnc3c1)C2 [Compound 37, 6-(1H-Benzotriazole-5-carbonyl)-4,5,6,7-tetrahydro-2H-pyrazolo[3,4-c]pyridine-3-carboxylic acid [2-(3,4-dichloro-phenyl)-ethyl]-amide] |
| < 10 | O=C(NCc1cc(Cl)ccc1Cl)c1[nH]nc2c1CCN(C(=O)c1ccc3[nH]nnc3c1)C2 [Compound 38, 6-(1H-Benzotriazole-5-carbonyl)-4,5,6,7-tetrahydro-2H-pyrazolo[3,4-c]pyridine-3-carboxylic acid 2,5-dichloro-benzylamide] |
| < 1 | O=C(NCCc1ccc(Cl)cc1)c1[nH]nc2c1CCN(C(=O)c1ccc3[nH]nnc3c1)C2 [Compound 39, 6-(1H-Benzotriazole-5-carbonyl)-4,5,6,7-tetrahydro-2H-pyrazolo[3,4-c]pyridine-3-carboxylic acid [2-(4-chloro-phenyl)-ethyl]-amide] |
| < 30 | O=C(NCCc1cccc(Cl)c1)c1[nH]nc2c1CCN(C(=O)c1ccc3[nH]nnc3c1)C2 [Compound 42, 6-(1H-Benzotriazole-5-carbonyl)-4,5,6,7-tetrahydro-2H-pyrazolo[3,4-c]pyridine-3-carboxylic acid [2-(3-chloro-phenyl)-ethyl]-amide] |
| < 10 | O=C(NCCc1ccc([N+](=O)[O-])cc1)c1[nH]nc2c1CCN(C(=O)c1ccc3[nH]nnc3c1)C2 [Compound 43, 6-(1H-Benzotriazole-5-carbonyl)-4,5,6,7-tetrahydro-2H-pyrazolo[3,4-c]pyridine-3-carboxylic acid [2-(4-nitro-phenyl)-ethyl]-amide] |
| < 10 | O=C(NCCc1ccc(Br)cc1)c1[nH]nc2c1CCN(C(=O)c1ccc3[nH]nnc3c1)C2 [Compound 44, 6-(1H-Benzotriazole-5-carbonyl)-4,5,6,7-tetrahydro-2H-pyrazolo[3,4-c]pyridine-3-carboxylic acid [2-(4-bromo-phenyl)-ethyl]-amide] |
| < 10 | COc1ccc(Cl)cc1CNC(=O)c1[nH]nc2c1CCN(C(=O)c1ccc3[nH]nnc3c1)C2 [Compound 45, 6-(1H-Benzotriazole-5-carbonyl)-4,5,6,7-tetrahydro-2H-pyrazolo[3,4-c]pyridine-3-carboxylic acid 5-chloro-2-methoxy-benzylamide] |
| < 10 | O=C(NCCc1ccc(F)cc1)c1[nH]nc2c1CCN(C(=O)c1ccc3[nH]nnc3c1)C2 [Compound 47, 6-(1H-Benzotriazole-5-carbonyl)-4,5,6,7-tetrahydro-2H-pyrazolo[3,4-c]pyridine-3-carboxylic acid [2-(4-fluoro-phenyl)-ethyl]-amide] |
